Results as given in ChEMBL document CHEMBL1201862, “PubChem BioAssay data set” (2004).
Values belong to the compound of their own block, whether it stands above or below them. Active and inactive are the calls of the source.

Legend:
[1] = target: T1, Mannose-6-phosphate isomerase (Homo sapiens, UniProt P34949); assay: MPI inhibition at elevated mannose 6-phosphate – biochemical, fluorescence intensity, high mannose 6-phosphate, primary screen (AID 1220)
T1 sequence (P34949 whole entry): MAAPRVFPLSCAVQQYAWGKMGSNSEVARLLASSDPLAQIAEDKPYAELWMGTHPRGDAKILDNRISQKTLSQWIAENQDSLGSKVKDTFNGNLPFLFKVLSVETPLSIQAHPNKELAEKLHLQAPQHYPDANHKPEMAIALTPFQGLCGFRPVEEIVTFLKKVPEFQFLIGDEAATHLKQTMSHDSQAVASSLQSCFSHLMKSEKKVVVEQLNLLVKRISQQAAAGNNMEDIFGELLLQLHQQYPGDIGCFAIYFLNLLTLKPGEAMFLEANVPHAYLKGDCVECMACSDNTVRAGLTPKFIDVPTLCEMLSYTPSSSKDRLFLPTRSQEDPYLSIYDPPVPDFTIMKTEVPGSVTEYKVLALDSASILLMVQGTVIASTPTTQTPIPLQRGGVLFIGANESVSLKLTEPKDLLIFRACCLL

Phospholipase A2 = Phospholipase A2 (Homo sapiens, UniProt P04054); type: functional;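 note: confirmatory dose-response counterscreen on phospholipase A2, testing hits that came from an ultra-high-throughput screen for ATG4B inhibitors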
Sequence of Phospholipase A2 (P04054 whole entry): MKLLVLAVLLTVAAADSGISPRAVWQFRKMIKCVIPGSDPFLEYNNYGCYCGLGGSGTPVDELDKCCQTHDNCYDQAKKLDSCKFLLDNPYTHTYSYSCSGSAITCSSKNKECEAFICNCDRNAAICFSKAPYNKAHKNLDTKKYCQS

[2] = target: T2, Sentrin-specific protease 7 (Homo sapiens, UniProt Q9BQF6); type: functional;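 note: Luminescence-based dose-response confirmation of ultra-high-throughput screening hits, measuring inhibition of SENP7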
T2 sequence (Q9BQF6 whole entry): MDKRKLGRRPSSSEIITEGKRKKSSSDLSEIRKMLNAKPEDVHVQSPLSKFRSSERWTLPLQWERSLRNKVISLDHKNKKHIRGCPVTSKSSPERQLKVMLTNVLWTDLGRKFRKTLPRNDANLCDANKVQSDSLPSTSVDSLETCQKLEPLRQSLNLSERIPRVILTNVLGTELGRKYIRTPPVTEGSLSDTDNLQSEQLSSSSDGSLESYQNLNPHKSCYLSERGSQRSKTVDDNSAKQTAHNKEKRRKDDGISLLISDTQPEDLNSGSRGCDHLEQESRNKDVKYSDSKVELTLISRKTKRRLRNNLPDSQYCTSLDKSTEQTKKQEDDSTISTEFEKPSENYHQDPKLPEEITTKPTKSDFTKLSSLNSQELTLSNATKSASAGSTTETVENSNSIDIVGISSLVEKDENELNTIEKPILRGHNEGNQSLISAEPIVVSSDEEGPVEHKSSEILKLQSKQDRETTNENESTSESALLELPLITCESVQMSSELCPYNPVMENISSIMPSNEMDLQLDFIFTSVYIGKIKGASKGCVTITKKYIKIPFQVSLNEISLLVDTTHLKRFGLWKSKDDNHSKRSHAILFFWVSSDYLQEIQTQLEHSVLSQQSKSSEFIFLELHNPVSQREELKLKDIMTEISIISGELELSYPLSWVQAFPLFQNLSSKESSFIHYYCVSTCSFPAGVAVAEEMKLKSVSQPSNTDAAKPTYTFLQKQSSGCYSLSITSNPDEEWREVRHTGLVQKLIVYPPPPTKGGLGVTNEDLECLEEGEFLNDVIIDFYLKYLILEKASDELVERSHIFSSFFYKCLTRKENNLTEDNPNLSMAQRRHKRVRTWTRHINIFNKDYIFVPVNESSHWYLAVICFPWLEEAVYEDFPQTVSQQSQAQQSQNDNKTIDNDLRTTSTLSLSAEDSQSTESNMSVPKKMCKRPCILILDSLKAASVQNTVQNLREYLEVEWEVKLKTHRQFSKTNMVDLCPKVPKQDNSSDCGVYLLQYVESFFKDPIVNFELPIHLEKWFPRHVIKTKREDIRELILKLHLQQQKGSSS

[3] = target: Fibroblast growth factor receptor 3 (Homo sapiens, UniProt P22607); type: functional
[4] = target: Mitogen-activated protein kinase kinase kinase kinase 2 (Homo sapiens, UniProt Q12851); type: functional;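 note: measured as one member of a kinome-wide kinase panel, with MAP4K2 as the panel entry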
[5] = target: T3, Protein kinase C zeta type (Homo sapiens, UniProt Q05513); type: functional;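 note: measured as one member of a broad kinase profiling panel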
T3 sequence (Q05513 whole entry): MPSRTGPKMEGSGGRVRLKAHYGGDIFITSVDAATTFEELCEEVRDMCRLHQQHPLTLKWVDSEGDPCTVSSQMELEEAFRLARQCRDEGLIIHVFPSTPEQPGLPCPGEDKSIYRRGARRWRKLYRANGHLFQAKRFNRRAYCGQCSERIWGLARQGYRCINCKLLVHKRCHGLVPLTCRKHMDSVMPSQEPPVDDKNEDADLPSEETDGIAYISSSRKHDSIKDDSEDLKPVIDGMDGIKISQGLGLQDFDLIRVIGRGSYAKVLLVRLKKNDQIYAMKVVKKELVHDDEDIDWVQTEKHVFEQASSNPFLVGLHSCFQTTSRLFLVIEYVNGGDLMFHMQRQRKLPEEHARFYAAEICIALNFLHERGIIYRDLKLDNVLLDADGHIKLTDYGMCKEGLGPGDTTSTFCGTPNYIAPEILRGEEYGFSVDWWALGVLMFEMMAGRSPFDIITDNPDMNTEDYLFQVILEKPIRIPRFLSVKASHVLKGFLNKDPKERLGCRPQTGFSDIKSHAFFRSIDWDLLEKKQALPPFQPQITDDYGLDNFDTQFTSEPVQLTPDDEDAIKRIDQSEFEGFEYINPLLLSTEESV

[6] = target: Serine/threonine-protein kinase MRCK alpha (Homo sapiens, UniProt Q5VT25); type: functional
[7] = target: Receptor tyrosine-protein kinase erbB-2 (Homo sapiens, UniProt P04626); assay: Navigating the Kinome. Panel member name: ERBB2; type: functional
[8] = target: Interleukin-1 receptor-associated kinase 4 (Homo sapiens, UniProt Q9NWZ3); type: functional
Sequence of Interleukin-1 receptor-associated kinase 4 (Q9NWZ3 whole entry): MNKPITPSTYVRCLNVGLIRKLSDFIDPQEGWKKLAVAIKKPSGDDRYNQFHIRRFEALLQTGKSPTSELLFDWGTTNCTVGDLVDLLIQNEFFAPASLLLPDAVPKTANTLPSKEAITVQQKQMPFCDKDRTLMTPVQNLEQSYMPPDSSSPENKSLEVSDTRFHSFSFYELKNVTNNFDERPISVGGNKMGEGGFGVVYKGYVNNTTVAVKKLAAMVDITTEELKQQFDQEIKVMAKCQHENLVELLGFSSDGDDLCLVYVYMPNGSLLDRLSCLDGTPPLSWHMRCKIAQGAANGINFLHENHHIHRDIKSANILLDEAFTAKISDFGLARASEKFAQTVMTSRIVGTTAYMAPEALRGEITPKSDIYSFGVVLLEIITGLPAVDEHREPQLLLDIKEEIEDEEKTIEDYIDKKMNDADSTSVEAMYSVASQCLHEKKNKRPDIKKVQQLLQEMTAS

[9] = target: Vascular endothelial growth factor receptor 1 (Homo sapiens, UniProt P17948); type: functional;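 note: measured within a kinome-wide profiling panel, FLT1 as the panel member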
[10] = target: Serine/threonine-protein kinase D2 (Homo sapiens, UniProt Q9BZL6); type: functional;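 note: measured against PRKD2 as one member of a kinome-wide kinase profiling panel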
[11] = target: Mast/stem cell growth factor receptor Kit (Homo sapiens, UniProt P10721); type: functional;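 note: KIT entry within a kinase panel assay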
Sequence of Mast/stem cell growth factor receptor Kit (P10721 whole entry): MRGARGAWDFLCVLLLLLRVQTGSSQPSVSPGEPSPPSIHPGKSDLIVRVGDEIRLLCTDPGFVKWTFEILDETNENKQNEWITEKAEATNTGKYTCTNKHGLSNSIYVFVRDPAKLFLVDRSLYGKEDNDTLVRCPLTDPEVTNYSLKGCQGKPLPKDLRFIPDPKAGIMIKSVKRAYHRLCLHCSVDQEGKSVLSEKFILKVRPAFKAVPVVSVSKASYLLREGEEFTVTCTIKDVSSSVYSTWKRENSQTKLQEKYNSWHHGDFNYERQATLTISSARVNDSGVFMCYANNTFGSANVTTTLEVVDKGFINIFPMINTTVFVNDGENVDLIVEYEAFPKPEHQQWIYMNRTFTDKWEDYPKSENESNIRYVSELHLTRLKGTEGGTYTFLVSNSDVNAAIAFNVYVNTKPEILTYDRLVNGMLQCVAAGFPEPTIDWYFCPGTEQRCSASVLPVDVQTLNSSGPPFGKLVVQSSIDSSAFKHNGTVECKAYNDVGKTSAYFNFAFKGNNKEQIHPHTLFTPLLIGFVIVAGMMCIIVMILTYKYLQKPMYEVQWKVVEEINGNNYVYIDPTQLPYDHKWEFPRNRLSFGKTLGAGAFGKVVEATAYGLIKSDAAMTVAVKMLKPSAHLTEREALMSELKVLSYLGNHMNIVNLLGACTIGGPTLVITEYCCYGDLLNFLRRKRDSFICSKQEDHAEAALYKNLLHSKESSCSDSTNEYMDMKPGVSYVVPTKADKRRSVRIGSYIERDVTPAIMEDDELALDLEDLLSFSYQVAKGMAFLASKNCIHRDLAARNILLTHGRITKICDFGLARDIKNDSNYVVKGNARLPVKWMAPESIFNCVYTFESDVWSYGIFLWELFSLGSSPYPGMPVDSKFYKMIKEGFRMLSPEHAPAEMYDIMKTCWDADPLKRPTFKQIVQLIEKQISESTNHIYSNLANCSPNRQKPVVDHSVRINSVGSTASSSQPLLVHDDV

[12] = target: Receptor-type tyrosine-protein kinase FLT3 (Homo sapiens, UniProt P36888); type: functional;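 note: FLT3 was tested as one member of a kinome-wide kinase panel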
Sequence of Receptor-type tyrosine-protein kinase FLT3 (P36888 whole entry): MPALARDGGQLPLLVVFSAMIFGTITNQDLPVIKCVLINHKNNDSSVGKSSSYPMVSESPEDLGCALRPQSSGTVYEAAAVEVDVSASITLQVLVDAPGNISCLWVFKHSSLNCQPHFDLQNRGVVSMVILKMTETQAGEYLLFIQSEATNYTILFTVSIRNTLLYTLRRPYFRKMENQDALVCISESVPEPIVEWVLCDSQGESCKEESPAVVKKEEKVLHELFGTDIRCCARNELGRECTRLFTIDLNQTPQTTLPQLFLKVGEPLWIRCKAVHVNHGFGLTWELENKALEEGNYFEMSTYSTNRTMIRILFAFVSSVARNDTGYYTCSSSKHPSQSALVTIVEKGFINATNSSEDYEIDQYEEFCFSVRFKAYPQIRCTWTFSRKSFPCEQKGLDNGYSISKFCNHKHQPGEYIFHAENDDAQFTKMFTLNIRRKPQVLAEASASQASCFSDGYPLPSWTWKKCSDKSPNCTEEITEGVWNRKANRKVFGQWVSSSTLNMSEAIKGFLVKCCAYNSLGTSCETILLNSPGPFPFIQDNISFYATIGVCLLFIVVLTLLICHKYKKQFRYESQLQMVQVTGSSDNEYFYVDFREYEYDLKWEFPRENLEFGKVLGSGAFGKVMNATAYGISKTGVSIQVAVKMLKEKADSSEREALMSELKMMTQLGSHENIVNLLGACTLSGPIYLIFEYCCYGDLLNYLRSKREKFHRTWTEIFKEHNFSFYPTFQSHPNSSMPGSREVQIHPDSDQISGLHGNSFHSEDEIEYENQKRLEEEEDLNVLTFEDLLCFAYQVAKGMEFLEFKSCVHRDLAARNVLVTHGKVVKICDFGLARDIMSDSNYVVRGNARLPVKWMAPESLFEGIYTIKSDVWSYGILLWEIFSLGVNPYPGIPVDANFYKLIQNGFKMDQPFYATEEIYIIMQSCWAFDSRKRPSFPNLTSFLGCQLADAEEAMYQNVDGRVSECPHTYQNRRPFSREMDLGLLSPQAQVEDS

[13] = target: Serine/threonine-protein kinase pim-1 (Homo sapiens, UniProt P11309); type: functional
Sequence of Serine/threonine-protein kinase pim-1 (P11309 whole entry): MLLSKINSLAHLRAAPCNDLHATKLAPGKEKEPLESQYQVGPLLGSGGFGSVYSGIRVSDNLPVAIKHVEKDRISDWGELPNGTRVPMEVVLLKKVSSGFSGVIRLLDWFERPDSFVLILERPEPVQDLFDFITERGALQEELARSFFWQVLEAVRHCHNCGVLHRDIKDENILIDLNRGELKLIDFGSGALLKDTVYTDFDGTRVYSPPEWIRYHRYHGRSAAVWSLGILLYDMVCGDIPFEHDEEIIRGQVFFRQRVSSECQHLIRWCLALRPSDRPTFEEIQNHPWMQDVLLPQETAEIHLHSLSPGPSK

Aurora kinase B = Aurora kinase B (Homo sapiens, UniProt Q96GD4); type: functional
Sequence of Aurora kinase B (Q96GD4 whole entry): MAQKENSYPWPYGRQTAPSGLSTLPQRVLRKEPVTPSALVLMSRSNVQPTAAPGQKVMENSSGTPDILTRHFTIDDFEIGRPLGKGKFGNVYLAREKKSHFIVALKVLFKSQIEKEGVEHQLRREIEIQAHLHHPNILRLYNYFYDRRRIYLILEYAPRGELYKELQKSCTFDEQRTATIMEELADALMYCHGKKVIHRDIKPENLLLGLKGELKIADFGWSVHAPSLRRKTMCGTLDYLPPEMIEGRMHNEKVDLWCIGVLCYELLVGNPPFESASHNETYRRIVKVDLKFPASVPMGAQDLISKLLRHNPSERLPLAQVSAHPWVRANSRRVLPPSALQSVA

[14] = target: MAP kinase-activated protein kinase 2 (Homo sapiens, UniProt P49137); type: functional;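 note: measured as one member of a kinome-wide kinase panel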
Sequence of MAP kinase-activated protein kinase 2 (P49137 whole entry): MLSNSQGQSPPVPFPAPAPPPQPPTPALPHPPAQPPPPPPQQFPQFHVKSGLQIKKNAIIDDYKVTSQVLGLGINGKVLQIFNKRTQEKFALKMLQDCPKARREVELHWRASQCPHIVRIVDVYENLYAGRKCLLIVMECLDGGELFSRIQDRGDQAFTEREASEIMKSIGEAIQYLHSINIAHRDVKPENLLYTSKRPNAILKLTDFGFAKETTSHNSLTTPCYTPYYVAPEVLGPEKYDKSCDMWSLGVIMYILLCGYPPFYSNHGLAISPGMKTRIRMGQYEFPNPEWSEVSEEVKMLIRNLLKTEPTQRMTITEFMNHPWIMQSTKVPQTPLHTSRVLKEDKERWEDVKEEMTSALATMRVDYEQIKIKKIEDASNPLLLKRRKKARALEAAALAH

Misshapen-like kinase 1 = Misshapen-like kinase 1 (Homo sapiens, UniProt Q8N4C8); type: functional;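 note: kinome panel screen with MINK as the panel member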
Sequence of Misshapen-like kinase 1 (Q8N4C8 whole entry): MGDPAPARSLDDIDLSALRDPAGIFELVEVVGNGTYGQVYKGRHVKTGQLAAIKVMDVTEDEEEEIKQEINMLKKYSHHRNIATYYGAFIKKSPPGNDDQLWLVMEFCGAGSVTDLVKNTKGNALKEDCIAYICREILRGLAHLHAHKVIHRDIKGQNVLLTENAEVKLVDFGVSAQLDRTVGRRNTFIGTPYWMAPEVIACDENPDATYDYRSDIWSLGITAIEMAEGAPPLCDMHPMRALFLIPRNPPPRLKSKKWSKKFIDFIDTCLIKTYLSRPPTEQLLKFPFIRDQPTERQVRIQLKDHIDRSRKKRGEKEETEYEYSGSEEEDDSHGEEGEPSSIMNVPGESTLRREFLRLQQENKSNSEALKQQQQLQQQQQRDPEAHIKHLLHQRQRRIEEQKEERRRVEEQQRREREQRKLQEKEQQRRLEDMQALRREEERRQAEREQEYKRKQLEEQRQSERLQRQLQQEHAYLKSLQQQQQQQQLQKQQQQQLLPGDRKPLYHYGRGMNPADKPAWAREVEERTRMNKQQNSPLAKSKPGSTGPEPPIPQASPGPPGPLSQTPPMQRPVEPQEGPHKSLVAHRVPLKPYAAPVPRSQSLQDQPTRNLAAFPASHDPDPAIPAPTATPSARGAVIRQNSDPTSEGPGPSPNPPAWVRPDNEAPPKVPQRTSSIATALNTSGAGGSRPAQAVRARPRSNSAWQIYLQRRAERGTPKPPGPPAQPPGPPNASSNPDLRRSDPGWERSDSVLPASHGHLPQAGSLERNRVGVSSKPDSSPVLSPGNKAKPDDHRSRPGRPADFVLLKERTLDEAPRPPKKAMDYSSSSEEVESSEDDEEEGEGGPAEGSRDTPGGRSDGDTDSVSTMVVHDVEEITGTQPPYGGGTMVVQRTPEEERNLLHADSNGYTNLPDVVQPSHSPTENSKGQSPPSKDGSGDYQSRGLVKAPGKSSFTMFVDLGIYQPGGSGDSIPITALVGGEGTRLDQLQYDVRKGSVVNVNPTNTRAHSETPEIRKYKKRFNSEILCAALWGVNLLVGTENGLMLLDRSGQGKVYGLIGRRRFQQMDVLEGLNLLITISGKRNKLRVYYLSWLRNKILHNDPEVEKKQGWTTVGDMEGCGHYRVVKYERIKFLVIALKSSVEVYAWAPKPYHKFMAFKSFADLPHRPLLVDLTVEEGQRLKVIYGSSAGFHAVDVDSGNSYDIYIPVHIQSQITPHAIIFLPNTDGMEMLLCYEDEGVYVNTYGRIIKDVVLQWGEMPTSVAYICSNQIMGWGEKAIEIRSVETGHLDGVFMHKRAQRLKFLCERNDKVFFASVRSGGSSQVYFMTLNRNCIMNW

[15] = target: Serine/threonine-protein kinase Nek4 (Homo sapiens, UniProt P51957); type: functional

Compound: CCCc1nc2c(=O)n(C)c(=O)nc-2n(C)n1
IC50 [1]: 13.2 µM (active)
IC50 (Phospholipase A2): > 80 µM (inactive)

IC50 [2]: 18 µM (active)
Compound: CC(=O)c1ccc(NC2=C(N3CCOCC3)C(=O)c3ccccc3C2=O)cc1

Ki [3]: > 2 µM (inactive)
Ki [4]: > 6.31 µM (inactive)
Ki [5]: > 7.94 µM (inactive)
Ki [6]: > 10 µM (inactive)
Ki [7]: 1 µM (active)
Ki [8]: > 10 µM (inactive)
Ki [9]: 0.126 µM (active)
Ki [10]: > 10 µM (inactive)
Ki [11]: 0.126 µM (active)
Ki [12]: 0.0501 µM (active)
Ki [13]: > 10 µM (inactive)
Ki (Aurora kinase B): > 6.31 µM (inactive)
Ki [14]: > 7.94 µM (inactive)
Ki (Misshapen-like kinase 1): > 7.94 µM (inactive)
Ki [15]: > 6.31 µM (inactive)
Compound: COc1cc2ncn(-c3cc(OCc4ccccc4C(F)(F)F)c(C(N)=O)s3)c2cc1OC [GW843682X]
